In US7091033B2, “Array of toxicologically relevant canine genes and uses thereof” (Phase-1 Molecular Toxicology, Inc., priority 2000, dated 2006):
Like-named read-outs stand apart in the source and are kept apart here.

Columns and labels:
Format in all cases: in vivo
[1] = tested on: canine genes of the array; test: Canine array fold induction of canine genes in liver of canines dosed with test agents (Table 11); details: dog, 0.3 mg/kg, gene = c0 of the row
Text: (§1) Table 11 depicts the fold induction for canine genes in a canine array.

[2] = tested on: Cytochrome P450 2B (gene expression); test: Canine array fold induction of canine genes in kidney of dogs dosed with an agent (Table 11); details: dog, kidney, 0.3 mg/kg, canine kidney, 10 days
Text: as §1

[3] = tested on: Cytochrome P450 2C41 (gene expression); test: as above; details: dog, kidney, 0.3 mg/kg, canine kidney, 10 days
Text: as §1

[4] = tested on: Cytochrome P450 2D (gene expression); test: as above; details: dog, kidney, 0.3 mg/kg, canine kidney, 10 days
Text: as §1

[5] = tested on: canine genes in a canine array (Canine kidney); test: as above; details: canine kidney, 0.3 mg/kg, 10 days; for fold induction at 0.3 mg/kg: Canis lupus familiaris, 240 h
Text: as §1

[6] = tested on: canine genes of the array; test: Canine array fold induction of canine genes in kidney of canines dosed with test agents (Table 11); details: dog, 0.3 mg/kg, 10 days, gene = c0 of the row
Text: as §1

fold induction at 10 days ([1]; 0.3 mg/kg, 10196, Canine Liver, 10 days): 1 | fold induction at 10 days ([1]; 0.3 mg/kg, 10316, Canine liver, 10 day): 1.2 | fold induction at 10 days [2]: 1.2 | fold induction at 10 days [3]: 1.7 | fold induction at 10 days [4]: 1.2 | Alkaline phosphatase fold induction [5]: 1.6 | Caveolin-2 fold induction [5]: 1.6 | fold induction at 10 days ([6]; 0.3 mg/kg, 10087, canine kidney): 1.6 | fold induction at 10 days ([6]; 0.3 mg/kg, 10089, canine kidney): 1
SMILES: C[C@]12CC[C@@H]3c4ccc(O)cc4CC[C@H]3[C@@H]1CC[C@@H]2O [Estradiol]
fold induction at 0.3 mg/kg ([5]; read-out: Alkaline phosphatase fold induction): 1.4 | fold induction at 0.3 mg/kg ([5]; read-out: Angiopoietin-related protein 3 (ANGPTL3) fold induction): 1.1 | fold induction at 0.3 mg/kg ([5]; read-out: BRCA1 fold induction): 1.1 | fold induction at 0.3 mg/kg ([5]; read-out: Beta-glucuronidase fold induction): 1.3 | fold induction at 0.3 mg/kg ([5]; read-out: CD40 ligand fold induction): 1.1 | fold induction at 0.3 mg/kg ([5]; read-out: Catalase fold induction): 1.2 | fold induction at 0.3 mg/kg ([5]; read-out: Caveolin-1 fold induction): 1.4 | fold induction at 0.3 mg/kg ([5]; read-out: Caveolin-2 fold induction): 1.7 | fold induction at 0.3 mg/kg ([5]; read-out: Cubilin fold induction): 1.1 | fold induction at 0.3 mg/kg ([5]; read-out: Cytochrome c oxidase subunit VIIaL fold induction): 1 | fold induction at 0.3 mg/kg ([5]; read-out: c-erb B-2 fold induction): 1.3
